In brackets after ≈: the same amount, converted by molar mass. Read-outs that look alike come from different tables or passages of the source. Marks after values point to notes of the source that are not given here.
Assays:
physchem = details: 25 °C, thermodynamic from solid
[1] = Beagle, in vivo, po; for Dog F % (suspension): pH 2
[2] = 0.1N HCL, 1.0% DMSO, 24-hour incubation at ambient temperature, maximum theoretical compound concentration 100 μM
[3] = 1×PBS buffer (pH 7.4), 1.0% DMSO, 24-hour incubation at ambient temperature, maximum theoretical compound concentration 100 μM
[4] = fasted state simulated intestinal fluid (FaSSIF), fassif
[5] = fed state simulated intestinal fluid (FeSSIF), fessif

Structure (SMILES): Cc1cc(CC(=O)O)c(C(C)(C)CC(=O)N(c2nn(CC(F)(F)F)c3c(-c4ccc(C#CC(C)(C)S(C)(=O)=O)nc4[C@H](Cc4cc(F)cc(F)c4)NC(=O)Cn4nc(C(F)(F)F)c5c4C(F)(F)[C@@H]4C[C@H]54)ccc(Cl)c23)S(C)(=O)=O)c(OP(=O)(O)O)c1 [Compound 44]
- pH 2 solubility (pH 2): 1/100 μM
- pH 7 solubility (pH 7.4): 1/100 μM
- solubility (physchem; fassif): 2870 µg/mL (≈ 2210 µM)
- solubility (physchem; fessif): 460 µg/mL (≈ 355 µM)
- Dog F % (suspension) [1]: 27%

Structure (SMILES): CC(C)(C#Cc1ccc(-c2ccc(Cl)c3c(N(C(=O)CCCN(CCC(=O)O)C(=O)OCOP(=O)(O)O)S(C)(=O)=O)nn(CC(F)(F)F)c23)c([C@H](Cc2cc(F)cc(F)c2)NC(=O)Cn2nc(C(F)(F)F)c3c2C(F)(F)[C@@H]2C[C@H]32)n1)S(C)(=O)=O [Compound 31, 3-((4-(N-(4-chloro-7-(2-((S)-1-(2-((3bS,4aR)-5,5-difluoro-3-(trifluoromethyl)-3b,4,4a,5-tetrahydro-1H-cyclopropa[3,4]cyclopenta[1,2-c]pyrazol-1-yl)acetamido)-2-(3,5-difluorophenyl)ethyl)-6-(3-methyl-3-(methylsulfonyl)but-1-yn-1-yl)pyridin-3-yl)-1-(2,2,2-trifluoroethyl)-1H-indazol-3-yl)methylsulfonamido)-4-oxobutyl)(((phosphonooxy)methoxy)carbonyl)amino)propanoic acid]
- pH 2 solubility [2]: 1 μM
- pH 7 solubility [3]: 79 μM
- solubility (physchem; [4]): 2930 µg/mL (≈ 2290 µM)
- solubility (physchem; [5]): 902 µg/mL (≈ 705 µM)
- Dog F % (suspension) [1]: 15%

Structure (SMILES): CC(C)(CNC(=O)OCOP(=O)(O)O)CC(=O)N(c1nn(CC(F)(F)F)c2c(-c3ccc(C#CC(C)(C)S(C)(=O)=O)nc3[C@H](Cc3cc(F)cc(F)c3)NC(=O)Cn3nc(C(F)(F)F)c4c3C(F)(F)[C@@H]3C[C@H]43)ccc(Cl)c12)S(C)(=O)=O [Compound 41, (phosphonooxy)methyl (4-(N-(4-chloro-7-(2-((S)-1-(2-((3bS,4aR)-5,5-difluoro-3-(trifluoromethyl)-3b,4,4a,5-tetrahydro-111-cyclopropa[3,4]cyclopenta[1,2-c]pyrazol-1-yl)acetamido)-2-(3,5-difluorophenyl)ethyl)-6-(3-methyl-3-(methylsulfonyl)but-1-yn-1-yl)pyridin-3-yl)-1-(2,2,2-trifluoroethyl)-1H-indazol-3-yl)methylsulfonamido)-2,2-dimethyl-4-oxobutyl)carbamate]
- pH 2 solubility [2]: 1 μM
- pH 7 solubility [3]: 100 μM
- solubility (physchem; [4]): 1140 µg/mL (≈ 927 µM)
- solubility (physchem; [5]): 440 µg/mL (≈ 356 µM)
- Dog F % (suspension) [1]: 4%

Structure (SMILES): CN(C(=O)N(c1nn(CC(F)(F)F)c2c(-c3ccc(C#CC(C)(C)S(C)(=O)=O)nc3[C@H](Cc3cc(F)cc(F)c3)NC(=O)Cn3nc(C(F)(F)F)c4c3C(F)(F)[C@@H]3C[C@H]43)ccc(Cl)c12)S(C)(=O)=O)c1ncccc1CN(CC(=O)O)C(=O)OCOP(=O)(O)O [Compound 52, N-((2-(3-(4-chloro-7-(2-((S)-1-(2-((3bS,4aR)-5,5-difluoro-3-(trifluoromethyl)-3b,4,4a,5-tetrahydro-1H-cyclopropa[3,4]cyclopenta[1,2-c]pyrazol-1-yl)acetamido)-2-(3,5-difluorophenyl)ethyl)-6-(3-methyl-3-(methylsulfonyl)but-1-yn-1-yl)pyridin-3-yl)-1-(2,2,2-trifluoroethyl)-1H-indazol-3-yl)-1-methyl-3-(methylsulfonyl)ureido)pyridin-3-yl)methyl)-N-(((phosphonooxy)methoxy)carbonyl)glycine]
- pH 2 solubility [2]: 2 μM
- pH 7 solubility [3]: 100 μM
- solubility (physchem; [4]): 1370 µg/mL (≈ 1020 µM)
- solubility (physchem; [5]): > 6260 µg/mL
- Dog F % (suspension) [1]: 24%

Structure (SMILES): CC(C)(Cc1ccccc1OP(=O)(O)O)C(=O)N(c1nn(CC(F)(F)F)c2c(-c3ccc(C#CC(C)(C)S(C)(=O)=O)nc3[C@H](Cc3cc(F)cc(F)c3)NC(=O)Cn3nc(C(F)(F)F)c4c3C(F)(F)[C@@H]3C[C@H]43)ccc(Cl)c12)S(C)(=O)=O [Compound 46, 2-(3-(N-(4-chloro-7-(2-((S)-1-(2-((3bS,4aR)-5,5-difluoro-3-(trifluoromethyl)-3b,4,4a,5-tetrahydro-1H-cyclopropa[3,4]cyclopenta[1,2-c]pyrazol-1-yl)acetamido)-2-(3,5-difluorophenyl)ethyl)-6-(3-methyl-3-(methylsulfonyl)but-1-yn-1-yl)pyridin-3-yl)-1-(2,2,2-trifluoroethyl)-1H-indazol-3-yl)methylsulfonamido)-2,2-dimethyl-3-oxopropyl)phenyl dihydrogen phosphate]
- pH 2 solubility (pH 2): 1/66 μM
- pH 7 solubility (pH 7.4): 1/66 μM
- solubility (physchem; fassif): 700 µg/mL
- solubility (physchem; fessif): > 2150 µg/mL
- Dog F % (suspension) [1]: 10%

Structure (SMILES): CN(C(=O)N(c1nn(CC(F)(F)F)c2c(-c3ccc(C#CC(C)(C)S(C)(=O)=O)nc3[C@H](Cc3cc(F)cc(F)c3)NC(=O)Cn3nc(C(F)(F)F)c4c3C(F)(F)[C@@H]3C[C@H]43)ccc(Cl)c12)S(C)(=O)=O)c1ncc(C(=O)O)cc1COP(=O)(O)O [Compound 62, 6-(3-(4-chloro-7-(2-((S)-1-(2-((3bS,4aR)-5,5-difluoro-3-(trifluoromethyl)-3b,4,4a,5-tetrahydro-1H-cyclopropa[3,4]cyclopenta[1,2-c]pyrazol-1-yl)acetamido)-2-(3,5-difluorophenyl)ethyl)-6-(3-methyl-3-(methylsulfonyl)but-1-yn-1-yl)pyridin-3-yl)-1-(2,2,2-trifluoroethyl)-1H-indazol-3-yl)-1-methyl-3-(methylsulfonyl)ureido)-5-((phosphonooxy)methyl)nicotinic acid]
- pH 2 solubility [2]: 1 μM
- pH 7 solubility [3]: 67 μM
- solubility (physchem; [4]): 490 µg/mL (≈ 390 µM)
- Dog F % (solution) [1]: 8 ^c %

Structure (SMILES): Cc1cc(CC(=O)O)cc(OP(=O)(O)O)c1C(C)(C)CC(=O)N(c1nn(CC(F)(F)F)c2c(-c3ccc(C#CC(C)(C)S(C)(=O)=O)nc3[C@H](Cc3cc(F)cc(F)c3)NC(=O)Cn3nc(C(F)(F)F)c4c3C(F)(F)[C@@H]3C[C@H]43)ccc(Cl)c12)S(C)(=O)=O [Compound 47, 2-(4-(4-(N-(4-chloro-7-(2-((S)-1-(2-((3bS,4aR)-5,5-difluoro (trifluoromethyl)-3b,4,4a,5-tetrahydro-1H-cyclopropa[3,4]cyclopenta[1,2-c]pyrazolyl)acetamido)-2-(3,5-difluorophenyl)ethyl)-6-(3-methyl-3-(methylsulfonyl)but-1-ynyl)pyridin-3-yl)-1-(2,2,2-trifluoroethyl)-1H-indazol-3-yl)methylsulfonamido)-2-methyloxobutan-2-yl)-3-methyl-5-(phosphonooxy)phenyl)acetic acid]
- solubility (physchem; fassif): 1420 µg/mL (≈ 1100 µM)
- solubility (physchem; fessif): 226 µg/mL (≈ 174 µM)
- Dog F % (suspension) [1]: 7%

Structure (SMILES): Cc1cc(CP(=O)(O)O)c(C(C)(C)CC(=O)N(c2nn(CC(F)(F)F)c3c(-c4ccc(C#CC(C)(C)S(C)(=O)=O)nc4[C@H](Cc4cc(F)cc(F)c4)NC(=O)Cn4nc(C(F)(F)F)c5c4C(F)(F)[C@@H]4C[C@H]54)ccc(Cl)c23)S(C)(=O)=O)c(OP(=O)(O)O)c1 [Compound 55, (2-(4-(N-(4-chloro-7-(2-((S)-1-(2-((3bS,4aR)-5,5-difluoro-3-(trifluoromethyl)-3b,4,4a,5-tetrahydro-1H-cyclopropa[3,4]cyclopenta[1,2-c]pyrazol-1-yl)acetamido)-2-(3,5-difluorophenyl)ethyl)-6-(3-methyl-3-(methylsulfonyl)but-1-yn-1-yl)pyridin-3-yl)-1-(2,2,2-trifluoroethyl)-1H-indazol-3-yl)methylsulfonamido)-2-methyl-4-oxobutan-2-yl)-5-methyl-3-(phosphonooxy)benzyl)phosphonic acid]
- solubility (physchem; fassif): > 10000 µg/mL
- Dog F % (solution) [1]: 33 ^c %

Source: patent US11787825B2 (priority 2021, dated 2023)
